Test systems include SK-OV-3 ovarian; UACC-257 melanoma; RPMI-8226 leukemia; SW-620 colon; KM12 colon; 786-0 renal; MDA-MB-231 breast; NCI/ADR-RES ovarian; OVCAR-5 ovarian; A498 renal.
What all share (assay): inhibition of tumour cell growth, NCI panel, 48 h

Each structure is given as a SMILES string.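 Interpolation was linear, between the two tested concentrations surrounding the appropriate level; five concentrations were tested over 48 hours in 96-well plates. GI50: concentration for 50% inhibition of growth. TGI marks complete inhibition of growth.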 Bounds are passed on as bounds.

As for `O=C(O)/C(=C\c1ccncc1)c1cccc2ccccc12`, the TGI with SK-OV-3 ovarian is greater than 100 µM; in the test with UACC-257 melanoma it was 30.7 µM; with RPMI-8226 leukemia, greater than 100 µM; in the test with SW-620 colon, greater than 100 µM; in the test with KM12 colon it was greater than 100 µM; with 786-0 renal, greater than 100 µM. Besides, the TGI in the test with MDA-MB-231 breast, in the test with NCI/ADR-RES ovarian and in the test on OVCAR-5 ovarian was greater than 100 µM throughout.

Regarding `CCCCCCCCCCC(C)CCCCCCC(=O)O` (configuration not stated), the TGI in the test on SK-OV-3 ovarian, in the test on UACC-257 melanoma, in the test on RPMI-8226 leukemia, in the test on SW-620 colon, in the test with KM12 colon and in the test with 786-0 renal was greater than 100 µM throughout. The TGI in the test on A498 renal and with OVCAR-5 ovarian was greater than 100 µM in each case.

Consider `O=C(CC/C(CC(=O)c1ccc(Br)cc1)=N\O)Nc1ccc(Cl)c(Cl)c1`, for which the TGI in the test on SK-OV-3 ovarian, in the test on UACC-257 melanoma, in the test with RPMI-8226 leukemia, in the test with SW-620 colon, in the test on KM12 colon and in the test on 786-0 renal was greater than 100 µM throughout. The TGI with A498 renal and in the test with OVCAR-5 ovarian was greater than 100 µM in each case.

`CCC[CH2][Sn]1([CH2]CCC)[O]CC(C)[O]1` (configuration not stated): the GI50 is 3.56 µM with SK-OV-3 ovarian; 1.07 µM with UACC-257 melanoma; 0.309 µM with RPMI-8226 leukemia; 0.46 µM in the test on SW-620 colon; 2.1 µM with KM12 colon; 1.48 µM in the test with 786-0 renal. The results for the GI50 in the test with A498 renal and in the test on OVCAR-5 ovarian were 2.6 µM and 2.03 µM, respectively. The TGI in the test with SK-OV-3 ovarian was 10.4 µM; in the test with UACC-257 melanoma, 2.56 µM; in the test with RPMI-8226 leukemia, 2.07 µM; with SW-620 colon, 1.83 µM; with KM12 colon it was 6.23 µM; with 786-0 renal it was 2.84 µM. Besides, the TGI was 4.68 µM in the test with A498 renal and 7.45 µM in the test with OVCAR-5 ovarian.

On to `Brc1cc2c(cc1Br)CN(c1ccccc1)C2`, for which the TGI in the test on SK-OV-3 ovarian, with UACC-257 melanoma, in the test with RPMI-8226 leukemia, in the test on SW-620 colon, in the test on KM12 colon and in the test on 786-0 renal was greater than 100 µM throughout. The TGI with A498 renal and in the test with OVCAR-5 ovarian was greater than 100 µM each time.

For the compound `C[C@@H](Nc1nc(Nc2ccc(F)c(Cl)c2)nc2ccccc12)C1CC1`, the GI50 in the test on SK-OV-3 ovarian was 5.36 µM; with RPMI-8226 leukemia it was 1.33 µM; with SW-620 colon, 3.14 µM; with KM12 colon it was 3.18 µM; in the test with 786-0 renal, 1.69 µM; in the test on MDA-MB-231 breast it was 2.46 µM. Moreover, the GI50 is 2.3 µM in the test on NCI/ADR-RES ovarian and 3.73 µM in the test on OVCAR-5 ovarian. Further, the TGI with SK-OV-3 ovarian was 17.3 µM; with RPMI-8226 leukemia it was 3.81 µM; in the test with SW-620 colon it was 13.9 µM; with KM12 colon, 14.1 µM; in the test on 786-0 renal it was 3.45 µM; in the test with MDA-MB-231 breast it was 7.61 µM. Also, the TGI with NCI/ADR-RES ovarian worked out at 8.52 µM; with OVCAR-5 ovarian, 16 µM.

For the compound `Cc1cccc2c(O)cc(=O)oc12`, the TGI in the test on SK-OV-3 ovarian, in the test with UACC-257 melanoma, in the test with RPMI-8226 leukemia, in the test on SW-620 colon, with KM12 colon and in the test with 786-0 renal was greater than 100 µM each time. Further, the TGI with A498 renal and with OVCAR-5 ovarian was greater than 100 µM each time.

Consider `O=C(CCCCC(=O)N/N=C\c1ccccc1O)N/N=C\c1ccccc1O`, for which the GI50 with SK-OV-3 ovarian was 5.63 µM; in the test with 786-0 renal it was 5.13 µM; with MDA-MB-231 breast it was 1.9 µM; in the test with A498 renal, greater than 100 µM; with OVCAR-5 ovarian, greater than 100 µM. Moreover, the TGI in the test on SK-OV-3 ovarian was greater than 100 µM; in the test with 786-0 renal, greater than 100 µM; in the test on MDA-MB-231 breast, 57.5 µM; in the test with A498 renal, greater than 100 µM; in the test on OVCAR-5 ovarian it was greater than 100 µM.

Regarding `O=C1/C(=C/c2ccc(Br)cc2)CCC/C1=C\c1ccc(Br)cc1`, the TGI is greater than 100 µM in the test with SK-OV-3 ovarian; 16.2 µM in the test on UACC-257 melanoma; 5.26 µM with RPMI-8226 leukemia; 89 µM in the test on SW-620 colon; 10.9 µM with KM12 colon; 33.8 µM with 786-0 renal. In addition, the TGI in the test with A498 renal was determined as 16.1 µM.

Take `Cc1ccc(C(=O)CC2=Nc3nnc(CCCCCCCc4nnc5n4C(=O)C(CC(=O)c4ccc(C)cc4)=N5)n3C2=O)cc1`: the TGI with SK-OV-3 ovarian, in the test with UACC-257 melanoma, in the test on RPMI-8226 leukemia, in the test with SW-620 colon, in the test with KM12 colon and with 786-0 renal was greater than 100 µM each time. In the test on OVCAR-5 ovarian, this compound showed a TGI greater than 100 µM.

On to `COC(=O)c1nn(C(=N)c2ccc(Cl)cc2)c2c1CCC2`, for which the TGI in the test on SK-OV-3 ovarian, with UACC-257 melanoma, with RPMI-8226 leukemia, with SW-620 colon, in the test on KM12 colon and with 786-0 renal was greater than 100 µM in each case. Moreover, the TGI in the test with A498 renal and in the test on OVCAR-5 ovarian was greater than 100 µM throughout.

In the case of `CC(=O)[CH-]C(C)=O.CC(=O)[CH-]C(C)=O.CC[O-].CC[O-].[Ti+4]`, the GI50 with SK-OV-3 ovarian, in the test on UACC-257 melanoma, in the test on RPMI-8226 leukemia, with SW-620 colon, with KM12 colon and in the test on 786-0 renal was greater than 100 µM throughout. Further, in the test with OVCAR-5 ovarian, the GI50 is greater than 100 µM. Moreover, the TGI with SK-OV-3 ovarian, in the test with UACC-257 melanoma, with RPMI-8226 leukemia, with SW-620 colon, in the test with KM12 colon and with 786-0 renal was greater than 100 µM in each case. Besides, the TGI with OVCAR-5 ovarian is greater than 100 µM.

Consider `COc1cc2c3c(n(C)c(=O)c2cc1OC)-c1cc2c(cc1/C3=C\CCNCCCN)OCO2`, for which the GI50 is 2.73 µM in the test with SK-OV-3 ovarian; 1.41 µM in the test with KM12 colon; 1.99 µM in the test with 786-0 renal; 0.58 µM in the test on MDA-MB-231 breast; greater than 100 µM with NCI/ADR-RES ovarian; 3.04 µM in the test on OVCAR-5 ovarian. Moreover, the TGI in the test with SK-OV-3 ovarian was 11.7 µM; in the test with UACC-257 melanoma, 39.7 µM; with KM12 colon, 10.5 µM; in the test on 786-0 renal it was 12.5 µM; in the test with MDA-MB-231 breast, 3.05 µM; in the test with NCI/ADR-RES ovarian it was greater than 100 µM. The compound further yielded a TGI in the test on OVCAR-5 ovarian of 13.4 µM.

The record behind these values is PubChem BioAssay (NCI).
